Experimental data: EP4582418A1, “CRYSTALLINE FORM OF QUINOLINE DERIVATIVE INHIBITOR, PREPARATION METHOD THEREFOR AND USE THEREOF” (TransThera Sciences (Nanjing), Inc., priority 2022, dated 2024)
pIC50: −log10 of the molar value.

Legend:
[1] = PK evaluation of crystal forms in rats; assay type: in vivo
Method: The experimental crystal forms I and II of the methanesulfonate of the compound of formula (I) were each prepared into a suspension solution with 0.5% HPMC. The compound solutions were intragastrically administered to SD rats at a dose of 60 mg/kg. Blood samples were collected at time points of 15 min, 30 min, 1 h, 2 h, 4 h, 6 h, 8 h, 24 h, 48 h, 72 h, and 96 h after administration.
The animals were fixed, with tails warmed in a water bath 10 min before each sampling time point. About 100 µL of blood was collected via the tail vein, and the blood samples were collected in anticoagulation tubes containing EDTA-K2. The blood samples were then centrifuged at 8,000 rpm for 6 min at 4 °C to give plasma samples. The plasma samples were prepared within 30 min after blood collection. The plasma samples were stored in a refrigerator at -80 °C before the test.
The sample to be tested was taken out from the -80 °C refrigerator, naturally thawed at room temperature, and vortexed for 5 min. 20 µL of plasma sample was precisely pipetted to a 1.5 mL centrifuge tube, and 200 µL of internal standard working solution (a solution of tolbutamide in methanol, 100 ng/mL) was added. The resulting mixture was thoroughly mixed, vortexed for 5 min, and centrifuged at 12,000 rpm for 5 min. 50 µL of supernatant was precisely pipetted to a 96-well plate pre-loaded with 150 µL of water per well, and the resulting mixture was vortexed for 5 min and then used for LC-MS/MS analysis.
The concentrations of the test samples were calculated by Analyst 1.6.3 from AB Sciex. Parameters such as mean, standard deviation, and coefficient of variation (excluding those output directly by Analyst 1.6.3) were calculated by Microsoft Excel. PK parameters were calculated by Pharsight Phoenix 6.1 software NCA (Tmax was in median).

H1299 cell pAXL = target: T1, H1299 cell pAXL (Homo sapiens, UniProt P30530); experiment: Inhibitory activity on cell pAXL (Western Blot, hGAS6 stimulation); assay type: cell-based; details: H1299 cells, 60 min compound then hGAS6 200 ng/mL 60 min
T1 construct: endogenous in cells; host or cells: H1299
T1 sequence (P30530 26-894): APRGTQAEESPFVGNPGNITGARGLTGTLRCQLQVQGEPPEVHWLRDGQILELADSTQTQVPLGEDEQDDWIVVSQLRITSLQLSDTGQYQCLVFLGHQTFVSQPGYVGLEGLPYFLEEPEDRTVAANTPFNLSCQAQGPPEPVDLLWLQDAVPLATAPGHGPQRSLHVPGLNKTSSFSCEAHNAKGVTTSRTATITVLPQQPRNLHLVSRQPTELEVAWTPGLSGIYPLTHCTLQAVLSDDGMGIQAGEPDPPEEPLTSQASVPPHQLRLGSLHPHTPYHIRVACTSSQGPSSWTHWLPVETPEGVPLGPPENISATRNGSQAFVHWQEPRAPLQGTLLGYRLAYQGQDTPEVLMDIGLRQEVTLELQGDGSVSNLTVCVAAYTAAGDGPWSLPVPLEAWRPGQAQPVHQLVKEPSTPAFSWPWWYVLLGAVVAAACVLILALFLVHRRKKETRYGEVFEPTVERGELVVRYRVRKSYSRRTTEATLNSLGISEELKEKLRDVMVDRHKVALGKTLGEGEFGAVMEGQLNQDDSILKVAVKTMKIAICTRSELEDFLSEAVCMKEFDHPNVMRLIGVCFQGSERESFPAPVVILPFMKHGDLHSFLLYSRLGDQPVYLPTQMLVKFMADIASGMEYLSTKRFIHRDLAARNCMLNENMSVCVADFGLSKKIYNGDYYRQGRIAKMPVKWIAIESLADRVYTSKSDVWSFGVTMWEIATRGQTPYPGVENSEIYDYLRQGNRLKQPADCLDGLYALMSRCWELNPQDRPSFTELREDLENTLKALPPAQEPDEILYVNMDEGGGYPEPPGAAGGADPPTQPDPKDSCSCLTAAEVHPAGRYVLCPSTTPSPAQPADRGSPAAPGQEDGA
Method: H1299 is a non-small cell lung cancer cell line.
Test substance: the crystal form of the methanesulfonate of the compound of formula (I) of the present disclosure, having the structure shown above.
Test instruments: protein electrophoresis apparatus (Bio Rad), membrane transfer apparatus (Bio Rad), exposure apparatus (Tanon), CO2 cell incubator (Thermo), and the like.
H1299 cells were inoculated into a 6-well plate (containing 10% FBS 1640 medium, 5 × 10^5 cells/well) and adherently cultivated at 37 °C with 5% CO2 for 18 h. The cells were starved overnight, and different concentrations of the compound were added. The final compound concentrations were 0.37 nM, 1.1 nM, 3.3 nM, 10 nM, and 30 nM, with the final DMSO content in each compound well being 1 ‰. The negative control well contained medium with 1‰ DMSO. The cells were incubated at 37 °C with 5% CO2 for 60 min, and then hGAS6 (R&D, final concentration: 200 ng/mL) was added to each well. The cells were incubated for another 60 min, and then the total protein of the cells was extracted for a Western Blot experiment to assay the inhibitory activity of the compound on cell pAXL.

[2] = Stability test under influencing factors (high temperature, high humidity, illumination); assay type: physicochemical
Method: Test substances: the crystal forms I, II, III, and IV of the methanesulfonate of the compound of formula (I) of the present disclosure.
Methodology: Appropriate amounts of samples of the crystal forms I, II, III, and IV of the methanesulfonate of the compound of formula (I) were separately left to stand open under the conditions of a high temperature (60 °C), a high humidity (RH 92.5%), and illumination (4500±500 Lux); sampling was performed on days 5, 10, and 30 to investigate changes in the appearance, purity, and crystal form of the samples.

[3] = Left to stand open at 60 °C for 5 days
[4] = Left to stand open at 60 °C for 10 days
[5] = Left to stand open at 60 °C for 30 days
[6] = Left to stand open at RH 92.5% for 5 days
[7] = Left to stand open at RH 92.5% for 10 days
[8] = Left to stand open at RH 92.5% for 30 days
[9] = Left to stand open under illumination (4500±500 Lux) for 5 days
[10] = Left to stand open under illumination (4500±500 Lux) for 10 days
[11] = Left to stand open under illumination (4500±500 Lux) for 30 days

λ_z ([1]; SD rats, PO 60 mg/kg, n = 3, suspension in 0.5% HPMC): 0.018 h⁻¹ | AUC(0-t) ([1]; SD, rat, plasma, po, 60 mg/kg, 0-96 h, n = 3): 4020 µg·h/mL | Tmax ([1]; SD, rat, plasma, po, 60 mg/kg, median, n = 3, read-out: Tmax): 8 h | Cmax ([1]; SD, rat, plasma, po, 60 mg/kg, n = 3, read-out: Cmax): 69 µg/mL | tz1/2 ([1]; terminal half-life, SD rats, PO 60 mg/kg, n = 3): 38.6 h | pIC50 (H1299 cell pAXL): > 9.43 | Appearance ([2]; 0 days): White or off-white solid | Purity ([2]; 0 days): 99.69% | Appearance [2, 3]: White or off-white solid | Purity [2, 3]: 99.70% | Appearance [2, 4]: White or off-white solid | Purity [2, 4]: 99.68% | Appearance [2, 5]: White or off-white solid | Purity [2, 5]: 99.67% | Appearance [2, 6]: White or off-white solid | Purity [2, 6]: 99.69% | Appearance [2, 7]: White or off-white solid | Purity [2, 7]: 99.68% | Appearance [2, 8]: White or off-white solid | Purity [2, 8]: 99.67% | Appearance [2, 9]: White or off-white solid | Purity [2, 9]: 99.70% | Appearance [2, 10]: White or off-white solid | Purity [2, 10]: 99.69% | Appearance [2, 11]: White or off-white solid | Purity [2, 11]: 99.69% | changes in the appearance and purity ([2]; left to stand under conditions of the influencing factors for 30 days): no significant changes
SMILES: COc1cc2nccc(Oc3ccc(NC(=O)c4nn(C(C)C)cc(-c5ccc(F)cc5)c4=O)nc3)c2cc1OC [Crystal form I, N-(5-((6,7-dimethoxyquinolin-4-yl)oxy)pyridin-2-yl)-5-(4-fluorophenyl)-1-isopropyl-4-oxo-1,4-dihydropyridazine-3-carboxamide]
